Reference: publication PMC9667253 (eBioMedicine, 2022)

Legend:
E2F2 = E2F2 (Homo sapiens, UniProt Q14209); test: competition in biotin-bufalin pull-down from HepG2 lysate; assay type: cell-based
[1] = biological target: ZFP91 (zinc finger protein 91) (Homo sapiens, UniProt Q96JP5); test: MST; assay type: binding
Chain of ZFP91 (zinc finger protein 91) (Q96JP5 2-570): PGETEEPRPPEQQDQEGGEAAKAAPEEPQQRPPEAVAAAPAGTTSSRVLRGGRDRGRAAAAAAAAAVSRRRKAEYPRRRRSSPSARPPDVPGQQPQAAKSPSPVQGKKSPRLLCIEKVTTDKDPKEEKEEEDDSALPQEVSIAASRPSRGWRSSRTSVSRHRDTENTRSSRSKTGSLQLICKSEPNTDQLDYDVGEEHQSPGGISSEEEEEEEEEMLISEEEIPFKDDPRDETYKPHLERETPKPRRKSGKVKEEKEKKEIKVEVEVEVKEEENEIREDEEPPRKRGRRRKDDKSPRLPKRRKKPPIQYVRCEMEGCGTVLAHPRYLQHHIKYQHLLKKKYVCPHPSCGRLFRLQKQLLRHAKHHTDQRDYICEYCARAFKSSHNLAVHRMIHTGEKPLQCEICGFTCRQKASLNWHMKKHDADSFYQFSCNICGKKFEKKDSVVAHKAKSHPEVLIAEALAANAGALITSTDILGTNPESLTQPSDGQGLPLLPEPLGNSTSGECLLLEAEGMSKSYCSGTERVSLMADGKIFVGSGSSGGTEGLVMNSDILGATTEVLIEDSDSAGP

Chain of E2F2 (Q14209 whole entry): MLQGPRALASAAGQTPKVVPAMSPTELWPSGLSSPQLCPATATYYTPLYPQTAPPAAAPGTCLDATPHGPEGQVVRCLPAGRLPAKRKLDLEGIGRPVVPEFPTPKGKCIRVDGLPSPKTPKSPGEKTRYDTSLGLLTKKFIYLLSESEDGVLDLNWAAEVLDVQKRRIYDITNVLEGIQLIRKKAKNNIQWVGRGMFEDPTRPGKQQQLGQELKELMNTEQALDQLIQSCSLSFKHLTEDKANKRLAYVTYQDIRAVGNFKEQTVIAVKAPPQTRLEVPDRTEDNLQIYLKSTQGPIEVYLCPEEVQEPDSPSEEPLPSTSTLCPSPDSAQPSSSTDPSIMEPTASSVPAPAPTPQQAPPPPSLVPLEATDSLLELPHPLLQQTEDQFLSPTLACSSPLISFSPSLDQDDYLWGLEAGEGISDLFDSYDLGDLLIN

| Structure (SMILES) | competition in biotin-bufalin pull-down from HepG2 lysate (E2F2) | Kd [1] [nM] |
| --- | --- | --- |
| C[C@]12CC[C@@H](O)C[C@@H]1CC[C@@H]1[C@@H]2CC[C@]2(C)C(=O)CC[C@@H]12 [DHA, androsterone] | DHA significantly limited the binding of biotin-bufalin to E2F2 | – |
| O=c1cccco1 [α-Pyr, α-Pyrone] | – | 900 ± 322 |
